From ChEMBL document CHEMBL1131914, “Carbohydroxamido-oxazolidines: antibacterial agents that target lipid A biosynthesis” (Bioorg Med Chem Lett, 1999)
≈ marks a conversion by molar mass, not a printed value. Values belong to the compound of their own block, whether it stands above or below them. Calls of active or inactive are those of the source. The calls are words filed in the database; no cut-off is given here.

Columns and labels:
[1] = target: T1, UDP-3-O-acyl-N-acetylglucosamine deacetylase (Escherichia coli K-12, UniProt P0A725); assay: Inhibition of UDP-3-O-[R-3-hydroxymyristoyl]-GlcNAc deacetylase using direct deacetylase assay (DEACET) in Escherichia coli strain JB 1104
T1 sequence (P0A725 whole entry): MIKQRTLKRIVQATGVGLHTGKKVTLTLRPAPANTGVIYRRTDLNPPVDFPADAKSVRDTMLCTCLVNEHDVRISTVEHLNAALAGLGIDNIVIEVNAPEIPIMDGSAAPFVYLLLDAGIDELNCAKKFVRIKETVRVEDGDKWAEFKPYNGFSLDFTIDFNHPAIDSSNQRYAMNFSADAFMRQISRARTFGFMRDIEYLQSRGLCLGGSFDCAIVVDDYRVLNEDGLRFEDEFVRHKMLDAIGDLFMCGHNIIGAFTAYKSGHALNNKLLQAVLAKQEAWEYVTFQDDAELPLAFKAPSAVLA

[2] = tested on: Escherichia coli; assay: Antibacterial activity against Escherichia coli mutant (envA1) was determined; assay type: functional
[3] = tested on: Escherichia coli; assay: Antibacterial activity against Escherichia coli was determined; Ranges from […]; assay type: functional
[4] = target: T1, UDP-3-O-acyl-N-acetylglucosamine deacetylase; assay: Inhibition of UDP-3-O-[R-3-hydroxymyristoyl]-GlcNAc deacetylase using coupled radiochemical assay (WAVE) in Escherichia coli strain JB 1104
[5] = tested on: Escherichia coli; assay: Antibacterial activity of against Escherichia coli mutant (envA1) was determined.; assay type: functional, organism-based
[6] = tested on: Escherichia coli; assay: Antibacterial activity against Escherichia coli was determined; assay type: functional
[7] = tested on: Serratia; assay: Antibacterial activity against Serratia was determined; NA=not active; assay type: functional, organism-based
[8] = tested on: Escherichia coli; assay: Antibacterial activity against Escherichia coli was determined; Ranges from 1-3; assay type: functional
[9] = tested on: Pseudomonas; assay: Antibacterial activity against Pseudomonas was determined; NA=not active; assay type: functional, organism-based
[10] = tested on: Escherichia coli; assay: Antibacterial activity against Escherichia coli mutant (envA1) was determined; Ranges from 0.008-0.016; assay type: functional
[11] = tested on: Escherichia coli; assay: Antibacterial activity against Escherichia coli was determined; Ranges from 200-400; assay type: functional
[12] = tested on: Escherichia coli; assay: Antibacterial activity against Escherichia coli was determined; Ranges from 25-50; assay type: functional

Structure (SMILES): CCCc1cc(C2=NC(C(=O)NO)CO2)cc(OC)c1OC (configuration not stated)
IC50 [1]: 50 nM | MIC [2]: < 0.05 µg/mL | MIC [3]: 3 µg/mL (≈ 9.73 µM)

IC50 ([4]; read-out: IC50): > 400000 nM
Structure (SMILES): CN(O)C(=O)[C@H]1COC(c2ccccc2)=N1

Structure (SMILES): CCCc1ccc(C2=N[C@@H](C(=O)NO)CO2)cc1
MIC [5]: inactive | IC50 ([4]; read-out: IC50): 100 nM

IC50 ([4]; read-out: IC50): > 400000 nM
Structure (SMILES): O=C(O)C1COC(c2ccccc2)=N1 (configuration not stated)

IC50 ([4]; read-out: IC50): > 400000 nM
Structure (SMILES): COC(=O)C1COC(c2ccccc2)=N1 (configuration not stated)

Structure (SMILES): O=C(NO)[C@H]1COC(c2ccccc2)=N1
IC50 [1]: 6000 nM | IC50 ([4]; read-out: IC50): 1500 nM

IC50 ([4]; read-out: IC50): > 400000 nM
Structure (SMILES): CN(OCc1ccccc1)C(=O)[C@H]1COC(c2ccccc2)=N1

Structure (SMILES): O=C(NO)C1COC(c2ccncc2)=N1 (configuration not stated)
IC50 [1]: 100000 nM | MIC [5]: inactive

Structure (SMILES): Cc1cccc(C2=NC(C(=O)NO)CO2)c1 (configuration not stated)
MIC [5]: inactive | IC50 ([4]; read-out: IC50): 1100 nM

Structure (SMILES): CCCc1cc(C2=NC(C(=O)NO)CO2)cc(OC)c1O (configuration not stated)
IC50 [1]: 1400 nM | MIC [2]: 0.39 µg/mL (≈ 1.33 µM) | MIC [6]: > 100 µg/mL

Structure (SMILES): CCCc1cc(C2=N[C@@H](C(=O)NO)CO2)cc(OC)c1OC
IC50 [1]: 30 nM | MIC [7]: inactive | MIC [8]: 1 µg/mL (≈ 3.24 µM) | MIC [9]: inactive | MIC [10]: 8 ng/mL (≈ 0.0259 µM)

Structure (SMILES): O=C(NO)[C@@H]1COC(c2ccccc2)=N1
IC50 ([4]; read-out: IC50): 360000 nM

Structure (SMILES): O=C(NO)C1COC(c2ccccc2)=N1 (configuration not stated)
IC50 [1]: 8500 nM | MIC [11]: 200 µg/mL (≈ 970 µM) | MIC [2]: 3.6 µg/mL (≈ 17.5 µM) | IC50 ([4]; read-out: IC50): 3000 nM

Structure (SMILES): Cc1ccccc1C1=NC(C(=O)NO)CO1 (configuration not stated)
MIC [5]: inactive | IC50 ([4]; read-out: IC50): 2600 nM

Structure (SMILES): COc1cc(C2=N[C@@H](C(=O)NO)CO2)cc(OC)c1OC
IC50 [1]: 300 nM | MIC [5]: inactive

Structure (SMILES): CCCc1cc(C2=NC(C(=O)NO)CO2)cc(OCc2ccccc2)c1OC (configuration not stated)
IC50 [1]: 20 nM | MIC [2]: < 0.008 µg/mL | MIC [6]: 25 µg/mL (≈ 65 µM)

Structure (SMILES): O=C(NO)C1COC(c2ccccc2Cl)=N1 (configuration not stated)
IC50 [1]: 30000 nM

Structure (SMILES): Cc1ccc(C2=NC(C(=O)NO)CO2)cc1 (configuration not stated)
MIC [5]: inactive | IC50 ([4]; read-out: IC50): 1700 nM

Structure (SMILES): O=C(NO)C1COC(c2cccnc2)=N1 (configuration not stated)
IC50 [1]: 100000 nM | MIC [5]: inactive

Structure (SMILES): CCc1ccc(C2=N[C@@H](C(=O)NO)CO2)cc1
IC50 [1]: 600 nM | MIC [5]: inactive | IC50 ([4]; read-out: IC50): 200 nM

Structure (SMILES): CCCc1cc(C2=NC(C(=O)NO)CO2)ccc1OC (configuration not stated)
IC50 [1]: 300 nM | MIC [2]: 0.1 µg/mL (≈ 0.359 µM) | MIC [6]: 12.5 µg/mL (≈ 44.9 µM)

Structure (SMILES): O=C(NO)[C@H]1COC(c2ccco2)=N1
MIC [5]: inactive | IC50 ([4]; read-out: IC50): 9000 nM

Structure (SMILES): CCCc1cccc(C2=N[C@@H](C(=O)NO)CO2)c1
IC50 [1]: 1600 nM | MIC [2]: 0.06 µg/mL (≈ 0.242 µM) | MIC [6]: 12.5 µg/mL (≈ 50.3 µM) | IC50 ([4]; read-out: IC50): 50 nM

Structure (SMILES): O=C(NO)C1COC(c2c(Cl)cccc2Cl)=N1 (configuration not stated)
IC50 [1]: > 200000 nM | MIC [5]: inactive | IC50 [4]: Not Active

Structure (SMILES): COc1ccc(C2=N[C@@H](C(=O)NO)CO2)cc1
IC50 [1]: 1400 nM | MIC [2]: 0.25 µg/mL (≈ 1.06 µM) | IC50 ([4]; read-out: IC50): 300 nM | MIC [12]: 25 µg/mL (≈ 106 µM)

Structure (SMILES): CCCc1cc(C2=NC(C(=O)NO)CO2)cc(O)c1OC (configuration not stated)
IC50 [1]: 100 nM | MIC [2]: 0.06 µg/mL (≈ 0.204 µM) | MIC [6]: 12.5 µg/mL (≈ 42.5 µM)
